# Results as given in patent US9353076B2, “Crystal form of cabazitaxel and preparation method thereof” (Chongqing Taihao Pharmaceutical Co., Ltd., priority 2012, dated 2016).
# Assay: Accelerated stability test for a novel crystalline form of Cabazitaxel
# Format: physicochemical
Substance,Content (%) (0 month),Moisture (%) (0 month),The other maximum individual impurity (%) (0 month),Total impurity (%) (0 month),Content (%) (1 month),Moisture (%) (1 month),The other maximum individual impurity (%) (1 month),Total impurity (%) (1 month),Content (%) (2 months),Moisture (%) (2 months),The other maximum individual impurity (%) (2 months),Total impurity (%) (2 months),Content (%) (3 months),Moisture (%) (3 months),The other maximum individual impurity (%) (3 months),Total impurity (%) (3 months),Content (%) (6 months),Moisture (%) (6 months),The other maximum individual impurity (%) (6 months),Total impurity (%) (6 months)
"4-acetoxy-2α-benzoyloxy-5β,20-epoxy-1-hydroxy-7β,10β-dimethoxy-9-oxo-11-taxadiene-13α-yl(2R,3S)-3-tert-butoxycarbonylamino-2-hydroxy-3-phenyl-propionate [crystalline form G of Cabazitaxel]",99.4,1.92,0.05,0.17,99.4,1.96,0.05,0.16,99.4,1.99,0.05,0.17,99.3,2.03,0.05,0.16,99.1,2.09,0.05,0.16
"4-acetoxy-2α-benzoyloxy-5β,20-epoxy-1-hydroxy-7β,10β-dimethoxy-9-oxo-11-taxadiene-13α-yl(2R,3S)-3-tert-butoxycarbonylamino-2-hydroxy-3-phenyl-propionate [crystalline form I of Cabazitaxel]",99.7,0.45,0.06,0.21,99.6,0.47,0.06,0.20,99.7,0.50,0.05,0.20,99.6,0.54,0.06,0.21,99.5,0.51,0.06,0.22
"4-acetoxy-2α-benzoyloxy-5β,20-epoxy-1-hydroxy-7β,10β-dimethoxy-9-oxo-11-taxadiene-13α-yl(2R,3S)-3-tert-butoxycarbonylamino-2-hydroxy-3-phenyl-propionate [crystalline form J of Cabazitaxel]",99.8,0.40,0.08,0.25,99.7,0.44,0.07,0.25,99.6,0.46,0.07,0.28,99.6,0.50,0.08,0.26,99.5,0.48,0.08,0.28
